Experimental data as given in patent US6441030B1, “3-phenyl-pyrones” (Bayer Aktiengesellschaft, priority 1998, dated 2002).

Legend:
Type in all cases: in vivo
Aphis fabae = assay: Critical concentration test/root-systemic action, Aphis fabae (Example G); details: active compound concentration of 1.25 ppm in the soil; broad beans; populated after 7 days, evaluated after a further 7 days
Description: (§1) Critical Concentration Test/Root-systemic Action Test insect: Aphis fabae Solvent: 4 parts by weight of dimethylformamide Emulsifier: 1 part by weight of alkylaryl polyglycol ether To prepare a suitable preparation of active compound, 1 part by weight of active compound is mixed with the stated amount of solvent, the stated amount of emulsifier is added and the concentrate is diluted with water to the desired concentration. The preparation of active compound is mixed intimately with the soil. The concentration of the active compound in the preparation is virtually immaterial, only the amount by weight of active compound per volume unit of soil, which is stated in ppm (=mg/l), being decisive. The treated soil is filled into 250 ml pots and pre-germinated broad beans are planted in these. Thus, the active compound can be taken up by the plant roots from the soil and then transported into the leaves. To assess the root-systemic effect, the leaves are populated with the abovementioned test animals after 7 days. After a further 7 days, evaluation is carried out by counting or estimating the dead animals. The root-systemic action of the active compound is derived from the number of animals killed. It is 100% if all test animals have been killed and 0% when the number of test insects that are still alive is the same as for the untreated control.

Myzus persicae = assay: Critical concentration test/root-systemic action, Myzus persicae (Example H); details: active compound concentration of 1.25 ppm in the soil; broad beans; populated after 7 days, evaluated after a further 7 days
Description: as §1, with “Myzus persicae” for “Aphis fabae”, “[…],” for “(=mg/l),”

[1] = tested on: larvae of the mustard beetle (Phaedon cochleariae); assay: Phaedon larvae test (Example C); details: active compound concentration of 0.1% in the preparation; cabbage leaves (Brassica oleracea) dipped
Description: Phaedon Larvae Test Solvent: 7 parts by weight of dimethylformamide Emulsifier: 1 part by weight of alkylaryl polyglycol ether […] Cabbage leaves (Brassica oleracea) are treated by being dipped into the preparation of active compound of the desired concentration and are populated with larvae of the mustard beetle (Phaedon cochleariae) while the leaves are still moist.

Cc1cc(Cl)ccc1-c1c(O)c(C)c(-c2ccccn2)oc1=O [Example 1, 3-(2-methyl-4-chloro-phenyl)-4-hydroxy-5-methyl-6-(pyrid-2-yl)-pyrone]
100 per cent: efficacy (root-systemic action) (Aphis fabae) | efficacy (root-systemic action) (Myzus persicae) | efficacy (kill in %) [1]
